Consider three molecules from PMC10589286, “Insights into the missing apiosylation step in flavonoid apiosides biosynthesis of Leguminosae plants” (Nature Communications, 2023).

One data set deals with T1, PtApiGT (Pueraria montana, UniProt A0AA51YHU3).
T1 construct: full length, pET-28a(+), E. coli BL21(DE3), nickel-purified
T1 sequence (A0AA51YHU3 1-457): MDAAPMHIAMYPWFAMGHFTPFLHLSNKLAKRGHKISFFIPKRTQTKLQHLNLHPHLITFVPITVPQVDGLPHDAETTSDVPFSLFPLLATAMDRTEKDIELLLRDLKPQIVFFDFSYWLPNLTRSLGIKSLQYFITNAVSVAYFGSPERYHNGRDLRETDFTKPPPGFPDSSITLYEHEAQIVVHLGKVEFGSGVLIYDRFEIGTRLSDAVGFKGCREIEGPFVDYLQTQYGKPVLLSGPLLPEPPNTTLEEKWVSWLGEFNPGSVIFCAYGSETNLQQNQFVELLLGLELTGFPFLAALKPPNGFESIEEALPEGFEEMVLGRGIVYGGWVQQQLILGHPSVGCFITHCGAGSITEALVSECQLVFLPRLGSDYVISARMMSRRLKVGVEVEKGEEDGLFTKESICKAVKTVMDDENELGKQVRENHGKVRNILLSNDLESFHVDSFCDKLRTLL
In words: enzyme catalysis, LC/MS. It is filed as biochemical. Conditions: sugar donor supplied by UAXS system; acceptor only in figure.

The target in the next data set is T2, GgApiGT (Glycyrrhiza glabra, UniProt A0AA51YKR8).
T2 construct: full length, pET-28a(+), E. coli BL21(DE3), nickel-purified
T2 sequence (A0AA51YKR8 1-454): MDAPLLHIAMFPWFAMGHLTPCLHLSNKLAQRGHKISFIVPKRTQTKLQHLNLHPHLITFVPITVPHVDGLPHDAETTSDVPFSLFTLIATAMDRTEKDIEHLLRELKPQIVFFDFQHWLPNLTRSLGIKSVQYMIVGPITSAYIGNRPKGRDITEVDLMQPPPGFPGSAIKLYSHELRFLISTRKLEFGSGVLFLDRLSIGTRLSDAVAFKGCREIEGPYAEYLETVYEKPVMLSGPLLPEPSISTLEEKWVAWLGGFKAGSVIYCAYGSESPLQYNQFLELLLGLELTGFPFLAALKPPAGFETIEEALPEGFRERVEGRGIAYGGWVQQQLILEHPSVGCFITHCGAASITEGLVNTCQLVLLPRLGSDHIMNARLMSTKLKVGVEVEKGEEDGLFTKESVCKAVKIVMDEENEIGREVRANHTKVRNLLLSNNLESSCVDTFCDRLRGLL
The data set is described as follows: enzyme catalysis, LC/MS. Conditions: sugar donor supplied by UAXS system; acceptor only in figure. It is filed as biochemical.

The next data set addresses T3, GiApiGT (Glycyrrhiza inflata, UniProt A0AA51YKD5).
T3 construct: full length, pET-28a(+), E. coli BL21(DE3), nickel-purified
T3 sequence (A0AA51YKD5 1-454): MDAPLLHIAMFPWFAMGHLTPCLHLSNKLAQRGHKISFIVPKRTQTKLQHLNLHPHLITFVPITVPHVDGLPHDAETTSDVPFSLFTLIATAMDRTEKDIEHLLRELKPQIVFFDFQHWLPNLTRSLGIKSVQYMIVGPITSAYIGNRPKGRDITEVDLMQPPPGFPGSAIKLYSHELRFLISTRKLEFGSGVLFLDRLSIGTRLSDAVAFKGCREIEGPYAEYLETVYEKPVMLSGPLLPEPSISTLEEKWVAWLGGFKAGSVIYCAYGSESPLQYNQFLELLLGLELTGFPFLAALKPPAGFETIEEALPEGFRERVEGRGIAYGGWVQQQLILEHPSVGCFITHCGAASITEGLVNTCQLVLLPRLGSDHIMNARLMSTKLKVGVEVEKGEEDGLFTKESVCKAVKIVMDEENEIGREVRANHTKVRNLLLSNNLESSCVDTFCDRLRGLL
The data set is described as follows: enzyme catalysis, LC/MS. It is filed as biochemical. As to conditions: sugar donor supplied by UAXS system; acceptor only in figure.

A further data set has as its target T4, SsApiGT (Spatholobus suberectus, UniProt A0AA51YHU4).
T4 construct: full length, synthesized gene, pET-28a(+), E. coli BL21(DE3), nickel-purified
T4 sequence (A0AA51YHU4 1-448): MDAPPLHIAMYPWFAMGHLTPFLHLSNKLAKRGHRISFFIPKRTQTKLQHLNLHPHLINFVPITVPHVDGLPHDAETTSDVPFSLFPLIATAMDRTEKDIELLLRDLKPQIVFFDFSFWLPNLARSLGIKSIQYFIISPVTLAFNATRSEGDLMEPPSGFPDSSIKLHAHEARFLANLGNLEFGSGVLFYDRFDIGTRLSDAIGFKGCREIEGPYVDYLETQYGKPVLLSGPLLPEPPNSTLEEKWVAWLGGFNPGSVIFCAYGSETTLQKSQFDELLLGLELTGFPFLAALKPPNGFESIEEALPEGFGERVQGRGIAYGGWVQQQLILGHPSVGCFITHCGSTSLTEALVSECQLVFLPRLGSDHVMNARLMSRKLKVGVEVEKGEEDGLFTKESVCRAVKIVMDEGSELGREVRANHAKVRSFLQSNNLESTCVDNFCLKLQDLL
The data set is described as follows: enzyme catalysis, LC/MS. It is filed as biochemical. As to conditions: sugar donor supplied by UAXS system; acceptor only in figure.

Another data set concerns the target T5, GuApiGT (Glycyrrhiza uralensis, UniProt A0AA51Z2W4, DEL371-371/H373Q).
T5 construct: full length, 454 aa (ORF 1365 bp), pET-28a(+) His-tagged, E. coli BL21(DE3), nickel-purified
The data set is described as follows: HPLC/MS conversion. It is filed as biochemical. Conditions: 0.5 mM UDP-Xyl, acceptor isoliquiritin (2) 0.1 mM, pH 8.0, 37 °C, 3 h; printed S371/H373Q (S371 deleted).

Substrate in data set [1]: O=C(/C=C/c1ccc(O[C@@H]2O[C@H](CO)[C@@H](O)[C@H](O)[C@H]2O)cc1)c1ccc(O)cc1O
In words: HPLC, Michaelis-Menten fit. It is filed as biochemical, Glycyrrhiza uralensis. Conditions: 480 µmol/L saturated UDP-apiose, pH 8.0 phosphate, 37 °C, 15 min.

T5 sequence (A0AA51Z2W4 entry or part of it DEL371-371/H373Q): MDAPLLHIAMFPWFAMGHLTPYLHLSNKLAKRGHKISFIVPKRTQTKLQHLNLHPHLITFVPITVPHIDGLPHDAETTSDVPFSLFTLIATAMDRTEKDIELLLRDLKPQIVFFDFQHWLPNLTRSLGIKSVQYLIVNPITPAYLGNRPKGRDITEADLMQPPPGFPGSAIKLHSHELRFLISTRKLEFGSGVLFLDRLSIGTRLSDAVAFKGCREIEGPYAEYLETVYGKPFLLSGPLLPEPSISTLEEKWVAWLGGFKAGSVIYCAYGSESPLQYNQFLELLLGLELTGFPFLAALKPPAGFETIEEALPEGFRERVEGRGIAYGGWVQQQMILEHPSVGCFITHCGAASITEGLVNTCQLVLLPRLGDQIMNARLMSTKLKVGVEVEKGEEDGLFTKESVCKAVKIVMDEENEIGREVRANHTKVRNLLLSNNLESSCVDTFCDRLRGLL

On to `O=c1ccn([C@@H]2O[C@H](COP(=O)(O)OP(=O)(O)O[C@H]3OC[C@](O)(CO)[C@H]3O)[C@@H](O)[C@H]2O)c(=O)[nH]1` [UDP-Api], for which the “enzyme catalysis, LC/MS” value at PtApiGT, at GgApiGT, on GiApiGT and on SsApiGT was “identified them as apiosyltransferases by enzyme catalysis reactions” in each case.
In the case of `O=c1ccn([C@@H]2O[C@H](COP(=O)(O)OP(=O)(O)O[C@H]3OC[C@@H](O)[C@H](O)[C@H]3O)[C@@H](O)[C@H]2O)c(=O)[nH]1` [UDP-Xyl], on GuApiGT, the HPLC/MS conversion entry is listed as “the S371/H373Q mutant could accept UDP-Xyl as sugar donor”.

B1: GuApiGT (Glycyrrhiza uralensis) (protein)
chain: MDAPLLHIAMFPWFAMGHLTPYLHLSNKLAKRGHKISFIVPKRTQTKLQHLNLHPHLITFVPITVPHIDGLPHDAETTSDVPFSLFTLIATAMDRTEKDIELLLRDLKPQIVFFDFQHWLPNLTRSLGIKSVQYLIVNPITPAYLGNRPKGRDITEADLMQPPPGFPGSAIKLHSHELRFLISTRKLEFGSGVLFLDRLSIGTRLSDAVAFKGCREIEGPYAEYLETVYGKPFLLSGPLLPEPSISTLEEKWVAWLGGFKAGSVIYCAYGSESPLQYNQFLELLLGLELTGFPFLAALKPPAGFETIEEALPEGFRERVEGRGIAYGGWVQQQMILEHPSVGCFITHCGAASITEGLVNTCQLVLLPRLGSDHIMNARLMSTKLKVGVEVEKGEEDGLFTKESVCKAVKIVMDEENEIGREVRANHTKVRNLLLSNNLESSCVDTFCDRLRGLL
notes: full length, 454 aa (ORF 1365 bp), pET-28a(+) His-tagged, E. coli BL21(DE3), nickel-purified
Turning to B1, in data set [1], the Km worked out at 2.59 ± 0.23 µM and the kcat was found to be 0.11 s⁻¹.
